Results as given in US8791268B2, “Vanilloid receptor ligands, pharmaceutical compositions containing them, process for making them, and use thereof for treating pain and other conditions” (Gruenenthal GmbH, priority 2007, dated 2014).

Columns and labels:
Format in all cases: cell-based
[1] = target: vanilloid receptor (VR1) (Homo sapiens (Human), UniProt Q8NER1); assay: FLIPR Ca2+ influx assay on CHO-K1 cells transfected with the human VR1 gene, capsaicin stimulus (Pharmacological Method II)
Experimental: Furthermore, preference may be given to compounds of the invention of the general formulas I, Ia, Ib and Ic, which in the FLIPR assay using CHO—K1 cells, which have been transfected with the human VR1 gene in a concentration below 2000 nM, preferably below 1000 nM, more preferably below 300 nM, even more preferably below 100 nM, still more preferably below 75 nM, very preferably below 50 nM and most preferably below 10 nM, cause a 50 percent displacement of capsaicin present in a concentration of 100 nM. In the FLIPR assay, the Ca^2+ influx is quantified with the aid of a Ca^2+-sensitive dye (type Fluo-4, Molecular Probes Europe BV, Leiden, Netherlands) in a fluorescent imaging plate reader (FLIPR, Molecular Devices, Sunnyvale, USA), as described below.
II. Functional Investigations on the Vanilloid Receptor (VR1)
The agonistic or antagonistic action of the substances to be examined on the vanilloid receptor (VR1) can alternatively be determined by the following assay. According to this assay the Ca^2+ influx through the canal is quantified with the aid of a Ca^2+-sensitive dye (type Fluo-4, Molecular Probes, Europe BV, Leiden, Netherlands) in a fluorescent imaging plate reader (FLIPR, Molecular Devices, Sunnyvale, USA).
Chinese hamster ovary cells (CHO—K1 cells, European Collection of Cell Cultures (ECACC) UK) are stably transfected with the VR1 gene. For carrying out functional investigations, these cells are plated on poly-D-lysine-coated, black 96-well plates with a clear bottom (BD Biosciences, Heidelberg, Germany) in a density of 25,000 cells/well. The cells are incubated overnight at 37° C. and 5% CO2 in a culture medium (Nutrient Mixture ‘am’s F12, 10% by volume of FCS (fetal calf serum), 18 μg/mL of L-proline). On the following day the cells are incubated with Fluo-4 (Fluo-4 2 μM, Pluronic F127 0.01 by volume, Molecular Probes in HBSS (Hank's buffered saline solution), Gibco Invitrogen GmbH, Karlsruhe, Germany) for 30 minutes at 37° C. The plates are then washed 3 times with HBSS buffer and, after another incubation over a period of 15 minutes at RT, are used in the FLIPR for Ca^2+ measurement. The Ca^2+-dependent fluorescence is measured prior to and following the addition of the substances being examined (wavelength λex=488 nm, λem=540 nm). Quantification is carried out by measuring the highest fluorescence intensity (PC, fluorescence counts) over time.
The FLIPR protocol consists of two substance additions. First of all, the substances to be tested (10 μM) are pipeted onto the cells and the Ca^2+ influx is compared with the control (capsaicin 10 μM) (percentage activation based on the Ca^2+ signal following addition of 10 μM of capsaicin). Following incubation over a period of 5 minutes 100 nM of capsaicin are applied and the influx of Ca^2+ is likewise determined.
Desensitizing agonists and antagonists lead to a suppression of the Ca^2+ influx. The percentage inhibition compared with the maximum inhibition achieved with 10 μM of capsaicin is calculated.
Based on the percentage displacement effected by different concentrations of the compounds of the general formula Ito be tested, IC50 inhibition concentrations that cause 50 percent displacement of capsaicin are calculated. Conversion using the Cheng Prusoff equation gave Ki values for the test substances (Cheng, Prusoff; Bioch. Pharmacol. 22, 3099-3108, 1973).
The affinity of the compounds of the invention for the vanilloid receptor 1 (VR1/TRPV1-Receptor) was detected as described above (Pharmacological Methods I and II respectively).

[2] = target: VR1/TRPV1 receptor (Homo sapiens (Human), UniProt Q8NER1); assay: Inhibition of human VR1/TRPV1 following pH-stimulus; details: ne = no effect, no reaction observed
[3] = target: vanilloid receptor 1 (VR1/TRPV1) (Rattus norvegicus (Rat), UniProt O35433); assay: FLIPR Ca2+ influx assay on rat dorsal root ganglia cells, capsaicin stimulus (Pharmacological Method I)
From the text: I. Functional Investigation on the Vanilloid Receptor 1 (VR1/TRPV1 Receptor)
The agonistic or antagonistic action of the substances to be investigated on the vanilloid receptor 1 (VR1/TRPV1) of the species rat can be determined using the following assay. According to this assay, the Ca^2+ influx through the receptor channel is quantified with the aid of a Ca^2+-sensitive dye (Type Fluo-4, Molecular Probes Europe BV, Leiden Netherlands) in a fluorescent imaging plate reader (FLIPR, Molecular Devices, Sunnyvale, USA).
Complete medium: 50 mL of HAMS F12 Nutrient Mixture (Gibco Invitrogen GmbH, Karlsruhe, Germany) with
10% by volume of FCS (fetal calf serum, Gibco Invitrogen GmbH, Karlsruhe, Germany, heat-inactivated);
2 mM of L-glutamine (Sigma, Munich, Germany);
1% by weight of AA solution (antibiotics/antimycotics solution, PAA, Pasching, Austria)
and 25 ng/mL of Medium NGF (2.5 S, Gibco Invitrogen GmbH, Karlsruhe, Germany) Cell culture plate: Poly-D-lysine-coated, black 96-well plates with a clear bottom (96-well black/clear plate, BD Biosciences, Heidelberg, Germany) are additionally coated with laminin (Gibco Invitrogen GmbH, Karlsruhe, Germany) by diluting laminin to a concentration of 100 μg/mL with PBS (Ca—Mg-free PBS, Gibco Invitrogen GmbH, Karlsruhe, Germany). Aliquots having a concentration of 100 μg/mL of laminin are taken and stored at −20° C. The aliquots are diluted with PBS in the ratio 1:10 to 10 μg/mL of laminin and in each case 50 μL of the solution is pipeted into a well of the cell culture plate. The cell culture plates are incubated at 37° C. for at least two hours, the supernatant solution is aspirated and the wells are in each case washed twice with PBS. The coated cell culture plates are stored with supernatant PBS and this is removed only directly before the addition of the cells.
Preparation of the Cells:
The vertebral column is removed from decapitated rats and this is laid directly in a cold, i.e. ice bath-surrounded, HBSS buffer (Hank's buffered saline solution, Gibco Invitrogen GmbH, Karlsruhe, Germany) and 1% by volume of an AA solution (antibiotics/antimycotics solution, PAA, Pasching, Austria) is added. The vertebral column is cut in two, longitudinally, and the vertebral canal is removed together with fascias. Subsequently, the dorsal root ganglia (DRGs) are removed and in turn stored in cold HBSS buffer to which 1% by volume of an AA solution has been added. The DRGs completely freed from blood residues and spinal nerves are in each case transferred to 500 μL of cold collagenase Type 2 (PAA, Pasching, Austria) and incubated at 37° C. for 35 minutes. After the addition of 2.5% by volume of trypsin (PAA, Pasching, Austria), the preparation is incubated at 37° C. for a further 10 minutes. On completion of incubation, the enzyme solution is carefully pipeted off and 500 μL of complete medium are added to the DRGs in each case. The DRGs are in each case repeatedly suspended, drawn through No. 1, No. 12, and No. 16 needles by means of a syringe and transferred to 50 mL Falcon tubes and these are filled to 15 mL with complete medium. The contents of each Falcon tube are in each case filtered through a 70 μm Falcon filter insert and centrifuged at 1200 rpm and RT for 10 minutes. The resulting pellet is in each case taken up in 250 μL of complete medium and the cell count is determined.
The number of cells in the suspension is adjusted to 3×10^5 per mL and in each case 150 μL of this suspension are added to a well of the cell culture plates coated as described above. The plates are allowed to stand at 37° C., 5% by volume of CO2 and 95% relative humidity for two to three days in an incubator. […]

VR1/TRPV1 receptor, sequence (Q8NER1 whole entry): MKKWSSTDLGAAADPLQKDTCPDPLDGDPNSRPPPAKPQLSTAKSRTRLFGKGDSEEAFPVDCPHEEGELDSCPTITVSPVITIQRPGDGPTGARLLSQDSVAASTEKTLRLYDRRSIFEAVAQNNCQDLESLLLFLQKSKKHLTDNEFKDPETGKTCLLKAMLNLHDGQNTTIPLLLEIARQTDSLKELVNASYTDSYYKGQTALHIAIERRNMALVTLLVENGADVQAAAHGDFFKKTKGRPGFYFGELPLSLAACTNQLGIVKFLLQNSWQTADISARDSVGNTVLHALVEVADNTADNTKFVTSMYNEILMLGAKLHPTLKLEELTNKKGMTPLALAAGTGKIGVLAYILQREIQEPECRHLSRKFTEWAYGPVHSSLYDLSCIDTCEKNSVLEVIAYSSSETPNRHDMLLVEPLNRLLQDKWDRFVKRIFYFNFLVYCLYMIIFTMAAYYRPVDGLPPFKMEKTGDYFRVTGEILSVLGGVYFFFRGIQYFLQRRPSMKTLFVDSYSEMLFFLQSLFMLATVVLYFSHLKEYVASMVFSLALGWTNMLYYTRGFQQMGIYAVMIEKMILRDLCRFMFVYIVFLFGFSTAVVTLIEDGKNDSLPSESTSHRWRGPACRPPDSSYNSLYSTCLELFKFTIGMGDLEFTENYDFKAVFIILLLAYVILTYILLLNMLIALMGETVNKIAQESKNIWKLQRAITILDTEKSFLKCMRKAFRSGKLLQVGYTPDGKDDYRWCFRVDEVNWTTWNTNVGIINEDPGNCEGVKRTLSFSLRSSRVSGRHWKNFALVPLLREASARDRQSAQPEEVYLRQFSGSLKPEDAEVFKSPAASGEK
vanilloid receptor (VR1), sequence (Q8NER1 whole entry): as above
vanilloid receptor 1 (VR1/TRPV1), sequence (O35433 whole entry): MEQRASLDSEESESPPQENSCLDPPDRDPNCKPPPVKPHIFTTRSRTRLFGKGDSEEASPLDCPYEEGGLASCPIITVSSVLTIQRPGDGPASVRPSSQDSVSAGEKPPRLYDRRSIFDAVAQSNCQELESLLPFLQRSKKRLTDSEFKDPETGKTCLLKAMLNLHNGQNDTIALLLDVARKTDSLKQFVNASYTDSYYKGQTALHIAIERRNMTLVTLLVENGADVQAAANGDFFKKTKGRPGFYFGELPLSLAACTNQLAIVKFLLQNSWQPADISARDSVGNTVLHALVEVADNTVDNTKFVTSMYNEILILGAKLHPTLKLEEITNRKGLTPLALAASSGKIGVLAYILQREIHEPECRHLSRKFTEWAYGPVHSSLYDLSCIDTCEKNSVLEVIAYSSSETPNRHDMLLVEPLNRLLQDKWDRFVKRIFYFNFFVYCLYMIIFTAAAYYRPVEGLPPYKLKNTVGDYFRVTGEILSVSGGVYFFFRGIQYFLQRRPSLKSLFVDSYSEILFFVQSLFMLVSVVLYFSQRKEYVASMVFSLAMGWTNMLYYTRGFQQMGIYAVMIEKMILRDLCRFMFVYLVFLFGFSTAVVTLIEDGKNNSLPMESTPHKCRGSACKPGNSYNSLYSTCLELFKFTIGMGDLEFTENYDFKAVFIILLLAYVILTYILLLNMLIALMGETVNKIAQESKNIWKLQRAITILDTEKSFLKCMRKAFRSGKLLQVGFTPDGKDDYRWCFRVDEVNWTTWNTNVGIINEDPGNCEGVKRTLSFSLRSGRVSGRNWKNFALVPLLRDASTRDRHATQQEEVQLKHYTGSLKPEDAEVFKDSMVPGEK

Row | SMILES | Ki [1] | IC50 (Human) following pH-stimulus [2] | Ki [3]
1 | CC1CCN(c2nc(C(F)(F)F)ccc2CNC(=O)Cc2cccc(F)c2)CC1 [Example 4, 2-(3-Fluorophenyl)-N-(4-methyl-6′-trifluoromethyl-3,4,5,6-tetrahydro-2H-[1,2′]bipyridinyl-3′-ylmethyl)acetamide] | 34 nM | ne | 80 nM
2 | CC1CCN(c2nc(C(F)(F)F)ccc2CNC(=O)Cc2cc(Br)cc(Br)c2)CC1 [Example 2, 2-(3,5-Dibromophenyl)-N-((2-(4-methylpiperidin-1-yl)-6-(trifluoromethyl)pyridin-3-yl)methyl)acetamide] | 40.6 nM | ne | 60.1 nM
